Source: article PMC3800186 (Biochemistry, 2013)
Entries after “also recorded” stand apart in the source; their conditions may differ.

Columns and labels:
[1] = system: gp120 interaction with mAb 17b; conditions: read-out: IC50(SPR) mAb 17b, shown for comparison, ref ([19]) and ([30]); cited from earlier work
[2] = system: gp120 interaction with sCD4; conditions: read-out: IC50(SPR) sCD4, shown for comparison, ref ([19]) and ([30]); cited from earlier work
[3] = target: S375A gp120 interaction with sCD4 (Human immunodeficiency virus type 1 group M subtype B, UniProt P35961, S370A); assay: SPR KR21/sCD4 competition over immobilized S375A gp120; assay type: binding, HIV-1; conditions: S375A versus WT
[4] = target: S375A gp120 (Human immunodeficiency virus type 1 group M subtype B, UniProt P35961, S370A); assay type: binding, HIV-1; conditions: immobilized S375A gp120, SPR
[5] = system: mutant gp120 (I423P) binding of F105 antibody; conditions: ref ([15], [48]); cited from earlier work
[6] = system: mutant gp120 (S375W); conditions: ref ([15]); cited from earlier work

| Compound | IC50 [1] [nM] | IC50 [2] [nM] | reduction in sCD4 inhibitory potency, S375A compared to WT gp120 [3] [fold] | direct binding to S375A gp120 [4] | inhibition of F105 antibody binding to mutant gp120 (I423P) [5] | binding to gp120 with pocket-filling S375W mutation [6] | inhibition of sCD4 binding to mutant gp120 (S375W) [6] |
| --- | --- | --- | --- | --- | --- | --- | --- |
| CC[C@H](C)[C@H](NC(=O)[C@@H](N)CCCNC(=N)N)C(=O)N[C@@H](CC(N)=O)C(=O)N[C@@H](CC(N)=O)C(=O)N[C@H](C(=O)N1C[C@@H](n2cc([C]34[CH]5[CH]6[CH]7[CH]3[Fe]6754389%10[CH]4[CH]3[CH]8[CH]9[CH]4%10)nn2)C[C@H]1C(=O)N[C@@H](Cc1c[nH]c2ccccc12)C(=O)NCCC(=O)N[C@@H](CCCCNC(=O)CCCC[C@@H]1SC[C@@H]2NC(=O)N[C@@H]21)C(=O)NCC(N)=O)[C@@H](C)CC (stereo partly drawn) [KR21, R^1-I^2-N^3-N^4-I^5-X^6-W^7-βA^8-BtLys^9-G^10] | 110 | 85 | 20 | severely disrupted; also recorded: could not be fitted |  |  |  |
| RINNIPWSEAMM [12p1] | 1600 | 1100 |  |  | inhibits | completely abrogated | does not inhibit; also recorded: resistant |
